Publication PMC6994103 (PLoS Neglected Tropical Diseases, 2020)
Several values for one entry are separate records, joined by “and”; a condition that tells them apart may be missing. Equal values may be shown once.

Legend:
[1] = test system: T. cruzi epimastigotes Dm28c strain; assay: Trypanocidal activity in epimastigotes, Dm28c strain; assay type: cell-based, Trypanosoma cruzi
Experimental: VERO cells (5 x10^4 per well) were infected with trypomastigotes (2.5 ×10^5 per well) for 4 h. After this period, the infected cells were washed twice with phosphate-buffered saline (PBS), the MEM medium was replaced, and the cells were kept in culture at 37°C, 5% CO2. In order to obtain intracellular amastigotes, the cells were lysed 4 days after infection using a cell scraper, collected, washed twice with PBS (or MEM) and counted using a hemocytometer. Trypomastigotes were obtained from infected VERO cells as previously described.
Epimastigotes of T. cruzi were cultured as described above, in 24-wells plate at a start density of 0.5 x10^7 cells/mL in BHT medium. Parasites´ growth was evaluated at different concentrations of BZL, CV and CV structural analogues, and parasite proliferation was determined after 48 h. Trypanocidal activity in trypomastigotes and amastigotes was performed using 1 x10^6 cells/mL in 96-well plates and incubating at 37°C for 24 h in the presence of the corresponding drug. Growth was determined by counting in a Neubauer chamber and viability assays by using “Cell Titer 96 Aqueous One Solution Cell Proliferation Assay (MTS)” (Promega, Madison, WI, USA) according to the manufacturer’s instructions. Amastigotes were fixed with methanol, stained and mounted with Vectashield with DAPI (Vector Laboratories, Burlingame, CA, USA), and then the non-lysed cells were counted by using fluorescence microscopy.

[2] = test system: T. cruzi epimastigotes Y strain; assay: Synergism BZL with LTD-CPH-CFZ in epimastigotes, Y strain (CompuSyn); assay type: cell-based, Trypanosoma cruzi
Experimental: Parasites´ growth was evaluated at different concentrations of BZL, CV and CV structural analogues, and parasite proliferation was determined after 48 h. […] Growth was determined by counting in a Neubauer chamber and viability assays by using “Cell Titer 96 Aqueous One Solution Cell Proliferation Assay (MTS)” (Promega, Madison, WI, USA) according to the manufacturer’s instructions. Amastigotes were fixed with methanol, stained and mounted with Vectashield with DAPI (Vector Laboratories, Burlingame, CA, USA), and then the non-lysed cells were counted by using fluorescence microscopy. Calculations were performed using CompuSyn software (http://combosyn.com) which is based on the median-effect equation [48] and its extension, the combination index.

## O=C(Cn1ccnc1[N+](=O)[O-])NCc1ccccc1 [Benznidazole]
[1]; Dm28c vs CL Brener
  fold more resistant Dm28c vs CL Brener epimastigotes: 1.2 fold
[1]; Y vs Dm28c
  fold more sensitive Y vs Dm28c epimastigotes: 1.6 fold
[2]; BZL 0.10 µM + LTD-CPH-CFZ 3.40 µM (1/25 IC50)
  DRI BZL: 16.63 ± 2.78
[2]; BZL 0.10 µM + LTD-CPH-CFZ 8.50 µM (1/10 IC50)
  DRI BZL: 73.67 ± 4.95
[2]; BZL 0.10 µM + LTD-CPH-CFZ 17.00 µM (1/5 IC50)
  DRI BZL: 374.17 ± 32.50
[2]; BZL 0.10 µM + LTD-CPH-CFZ 42.50 µM (1/2 IC50)
  DRI BZL: 923.66 ± 175.14
[2]; BZL 1.00 µM + LTD-CPH-CFZ 3.40 µM (1/25 IC50)
  DRI BZL: 5.12 ± 0.06
[2]; BZL 1.00 µM + LTD-CPH-CFZ 8.50 µM (1/10 IC50)
  DRI BZL: 13.27 ± 2.61
[2]; BZL 1.00 µM + LTD-CPH-CFZ 17.00 µM (1/5 IC50), listed as BZL
  DRI BZL: 54 and 53.83 ± 6.79
[2]; BZL 1.00 µM + LTD-CPH-CFZ 42.50 µM (1/2 IC50)
  DRI BZL: 157.01 ± 24.63
[2]; BZL 5.00 µM + LTD-CPH-CFZ 3.40 µM (1/25 IC50)
  DRI BZL: 2.45 ± 0.40
[2]; BZL 5.00 µM + LTD-CPH-CFZ 8.50 µM (1/10 IC50)
  DRI BZL: 5.48 ± 0.48
[2]; BZL 5.00 µM + LTD-CPH-CFZ 17.00 µM (1/5 IC50)
  DRI BZL: 10.31 ± 1.72
[2]; BZL 5.00 µM + LTD-CPH-CFZ 42.50 µM (1/2 IC50)
  DRI BZL: 63.09 ± 8.25
[2]; BZL 10.00 µM + LTD-CPH-CFZ 3.40 µM (1/25 IC50)
  DRI BZL: 3.89 ± 0.11
[2]; BZL 10.00 µM + LTD-CPH-CFZ 8.50 µM (1/10 IC50)
  DRI BZL: 5.45 ± 0.19
[2]; BZL 10.00 µM + LTD-CPH-CFZ 17.00 µM (1/5 IC50)
  DRI BZL: 10.20 ± 0.87
[2]; BZL 10.00 µM + LTD-CPH-CFZ 42.50 µM (1/2 IC50)
  DRI BZL: 45.77 ± 3.03
[2]; BZL 20.00 µM + LTD-CPH-CFZ 3.40 µM (1/25 IC50)
  DRI BZL: 5.88 ± 0.56
[2]; BZL 20.00 µM + LTD-CPH-CFZ 8.50 µM (1/10 IC50)
  DRI BZL: 7.44 ± 0.23
[2]; BZL 20.00 µM + LTD-CPH-CFZ 17.00 µM (1/5 IC50)
  DRI BZL: 10.94 ± 1.56
[2]; BZL 20.00 µM + LTD-CPH-CFZ 42.50 µM (1/2 IC50)
  DRI BZL: 68.51 ± 13.29
[2]; same effect (Fa 0.112) as BZL 0.10 µM + LTD-CPH-CFZ 3.40 µM
  Dose BZL alone: 1.66 ± 0.28 µM
[2]; same effect (Fa 0.257) as BZL 1.00 µM + LTD-CPH-CFZ 3.40 µM
  Dose BZL alone: 5.12 ± 0.06 µM
[2]; same effect (Fa 0.324) as BZL 0.10 µM + LTD-CPH-CFZ 8.50 µM
  Dose BZL alone: 7.37 ± 0.49 µM
[2]; same effect (Fa 0.430) as BZL 5.00 µM + LTD-CPH-CFZ 3.40 µM
  Dose BZL alone: 12.27 ± 2.01 µM
[2]; same effect (Fa 0.447) as BZL 1.00 µM + LTD-CPH-CFZ 8.50 µM
  Dose BZL alone: 13.27 ± 2.61 µM
[2]; same effect (Fa 0.609) as BZL 5.00 µM + LTD-CPH-CFZ 8.50 µM
  Dose BZL alone: 27.38 ± 2.41 µM
[2]; same effect (Fa 0.673) as BZL 0.10 µM + LTD-CPH-CFZ 17.00 µM
  Dose BZL alone: 37.42 ± 3.25 µM
[2]; same effect (Fa 0.682) as BZL 10.00 µM + LTD-CPH-CFZ 3.40 µM
  Dose BZL alone: 38.95 ± 1.06 µM
[2]; same effect (Fa 0.732) as BZL 5.00 µM + LTD-CPH-CFZ 17.00 µM
  Dose BZL alone: 51.57 ± 8.60 µM
[2]; same effect (Fa 0.740) as BZL 1.00 µM + LTD-CPH-CFZ 17.00 µM
  Dose BZL alone: 53.83 ± 6.79 µM
[2]; same effect (Fa 0.743) as BZL 10.00 µM + LTD-CPH-CFZ 8.50 µM
  Dose BZL alone: 54.45 ± 1.86 µM
[2]; same effect (Fa 0.821) as BZL 0.10 µM + LTD-CPH-CFZ 42.50 µM
  Dose BZL alone: 92.37 ± 17.51 µM
[2]; same effect (Fa 0.835) as BZL 10.00 µM + LTD-CPH-CFZ 17.00 µM
  Dose BZL alone: 101.97 ± 8.68 µM
[2]; same effect (Fa 0.852) as BZL 20.00 µM + LTD-CPH-CFZ 3.40 µM
  Dose BZL alone: 117.55 ± 11.14 µM
[2]; same effect (Fa 0.877) as BZL 20.00 µM + LTD-CPH-CFZ 8.50 µM
  Dose BZL alone: 148.83 ± 4.56 µM
[2]; same effect (Fa 0.881) as BZL 1.00 µM + LTD-CPH-CFZ 42.50 µM
  Dose BZL alone: 157.01 ± 24.63 µM
[2]; same effect (Fa 0.909) as BZL 20.00 µM + LTD-CPH-CFZ 17.00 µM
  Dose BZL alone: 218.81 ± 31.25 µM
[2]; same effect (Fa 0.933) as BZL 5.00 µM + LTD-CPH-CFZ 42.50 µM
  Dose BZL alone: 315.46 ± 41.27 µM
